Laboratory results published in patent US20190022239A1, “NOVEL BIOMOLECULE CONJUGATES AND USES THEREFOR” (The University of Western Australia, priority 2016, published 2019).

What was measured:
[1] = system: macrophage cell line J774; experiment: Bioactivity: J774 macrophages on matrigel attached with TNFα-CSG; format: cell-based; conditions: 0.1 mmol on matrigel, 1 to 16 hrs
Experimental: Bioactivity of TNFα-CSG was assessed in vitro, specifically by incubating macrophage cell, line, J774, on matrigel attached with TNFα-CSG (0.1 mmol).

[2] = system: RIP-Tag insulinoma and hepatocellular carcinoma; experiment: In vivo binding specificity of fluorescein-labelled TNFα-CSG and native TNFα; set-up: species or system mice; conditions: 130 μg i.v., 30 min circulation
Experimental: Binding specificity of TNFα-CSG to tumours in vivo was assessed by detecting fluorescein-labelled TNFα-CSG and native unconjugated TNFα following 130 μg intravenous injection (30 min circulation).

[3] = Toxicity of repeated intravenous injections; format: in vivo; conditions: 0.5-10 μg daily i.v., total of 8 injections
Experimental: To determine potential toxicity effects of TNFα-CSG, the inventors then administered TNFα-CSG intravenously to mice (n=6) at a dose ranging from 0.5-10 μg daily, to a total of 8 injections. TNFα-CSG is non-toxic at these doses and frequency.

4T1 breast carcinoma = experiment: Immune cell infiltration in 4T1 breast carcinoma (FACS); format: in vivo, mice; conditions: 2 μg daily i.v. for 5 days
Text: Dextran coated iron oxide encapsulated with 18:0 PEG2000 PE micelle formulation and doxorabicin-micelles were made in the laboratory. 4T1 murine breast carcinoma is an orthotopic implant model by inoculating of 5×10^5 cells in die mammary fat pad of syngeneic BALB/c mice. RIP1-TagS insulinoma model (on C3H background) contains the oncogene SV40 Large T antigen (Tag; RIP, rat insulin gene promoter) that is exclusively expressed in β cells of the pancreas resulting in pancreatic tumours of neuroendocrine origin. ALB-Tag HOC (in C3H background) contains the oncogene SV40 Large T antigen (Tag) that is exclusively expressed in hepatocytes under the control of the albumin (ALB) promoter, resulting in rapid (non-metastatic) HCC tumour progression.
Mice bearing 4T1 breast carcinoma, when tumour size reached 500 mm^3, were treated with 0.5 and 2 μg TNFα-CSG or native TNFα (in 100 μL) by daily intravenous injection for 5 days. FACS quantification of CD4+ and CD8+ T cells and infiltrating macrophages (CD11b+/CD68+/F4/80+) harvested in whole tumours is presented in FIG. 5.
As noted in Example 2, native TNFα at 2 μg is toxic (all mice died after receiving 2 doses of 2 μg TNFα). A lower dose of native TNFα (0.5 μg) is not effective compared to 0.5 μg TNFα-CSG (FIG. 5).

RIP-Tag insulinoma [4] = experiment: Immune cell infiltration in RIP-Tag insulinoma (immunofluorescence); format: in vivo, mice; conditions: 2 and 5 μg daily i.v. for 5 days, vs control groups
Experimental: Mice bearing RIP-Tag insulinoma at 25 weeks of age were treated with 2 and 5 μg TNF60 -CSG (in 100 μL) by daily intravenous injection for 5 days. FIG. 6 presents microscopic evaluation of CD4+ and CD8+ T cells and circulatory CD11b macrophages detected by immunofluorescence staining of tissue cross sections.

RIP-Tag insulinoma [5] = experiment: Tumour ECM content (collagen-1, laminin, nidogen-1); format: in vivo, mice; conditions: 2 μg or 5 μg i.v. daily for five days
Experimental: As evidenced by analysis of the ECM components collagen-1, laminin and nidogen-1, intravenous injection of TNFα-CSG at a dose of 2 μg or 5 μg daily for five days to mice having a RIP-Tag insulinoma, specifically reduces tumour ECM content (FIG. 9).

[6] = system: 4T1 breast carcinoma and RIP-Tag insulinoma; experiment: Tumour stiffness by optical coherence tomography/micro-elastography; format: in vivo, mice; conditions: 2 μg/day × 4 total injections
[7] = system: RIP-Tag insulinoma and 4T1 breast carcinoma; experiment: Tumour vessel perfusion (CD31:lectin ratio); format: in vivo, mice; conditions: 2 μg/day × 5
Experimental: The inventors then evaluated vessel perfusion in RIP-Tag insulinoma and 4T1. breast carcinoma from mice treated with TNFα-CSG (2 μg/day×5), as measured by CD31:lectin ratio following 10 min intravenous circulation of tomato green lectin.

4T1 tumour [8] = experiment: Tumour uptake of Evans blue dye; format: in vivo, mice; conditions: 2 μg i.v. for five days; Evans blue 30 min
Experimental: As a result of the reduced tumour ECM content and increased tumour vessel perfusion (Example 4), the inventors then evaluated the ability of tumours treated with TNFα-CSG to take op various reagents. Mice bearing 4T1 tumour were treated with 2 μg TNFα-CSG or CSG control peptide by intravenous injection for five days. Following this, mice were intravenously injected with 100 μL, of 0.9% Evans blue solution and allowed to circulate for 30 min. Tumours were then harvested and photographed.

insulinoma = experiment: Tumour uptake of iron oxide micelles (MRI); format: in vivo, mice; conditions: 2 μg dose daily for five days; 6 hr circulation
Experimental: Reduced tumour ECM and stiffness, as well as improved perfusion was also shown to result in enhanced tumour uptake of a nano-imaging contrast agent. Specifically, insulinoma-bearing mice were treated with 2-10 μg TNFα-CSG or CSG control peptide by intravenous infection daily for five days. Following this, mice were intravenously injected with 100 μL of 1 mM iron oxide (IO) micelles (30 nm diameter). Tumours were harvested after 6 hr circulation and imaged by MRI and microscopic analysts of tissues mounted in 2% agarose. […] This accumulation was confirmed by immunostaining analysis of tissue cross sections using anti-FITC antibody.

4T1 tumour [9] = experiment: Anti-tumorigenic effect on 4T1 tumour growth; format: in vivo, mice; conditions: 2 μg, 6 injections in 2 weeks
Experimental: The inventors have also discovered that TNFα-CSG has anti-tumorigenic effects, as evidenced by reduced tumour growth and reduced cell proliferation. 4T1 tumour-bearing mice were treated with 2 μg TNFα-CSG or control CSG peptide 4 days after inoculation with 5×10^5 4T1 cells. Each mouse received a total of 6 injections in 2 weeks.

4T1 breast tumours = experiment: Secondary metastasis of 4T1 breast tumours; format: in vivo, mice; conditions: 10 μg daily i.v., up to eight injections
Experimental: 4T1cells in blood, lung, liver and lymph nodes were harvested once the primary tumours reached 2,000 mm^3. Cell suspensions from these tissues were cultured in 6-thioguanine-containing media to select for 4T1 cells that are resistant to 6-thioguanine. Colonic metastasis of methylene blue stained cells were counted. It is known that the lung is the primary site of metastasis of breast tumours. […] Similarly, the colonic metastasis counts in liver and lymph nodes were lower in the TNFα-CSG treated group.

4T1 tumours = experiment: Tumour clearance, whole microscopic images of 4T1 tumours; format: in vivo, mice; conditions: 10 μg for five days

For “TNFα-CSG: Mature murine TNFα (SEQ ID NO:6) with C-terminal conjugated peptide CSGRRSSKC connected via a GGG linker; recombinant fusion protein”, the “protease secretion by J774 cells” value [1] was “secretion of MMP-2 and MMP-9”, the “binding to tumour tissue in vivo” value [2] was “specifically targeted” and the “binding to normal tissues in vivo” value ([2]; normal tissues) was “limited binding to normal pancreas, liver, heart, and kidney”. The toxicity [3] was “non-toxic”, the “increase in immune cell infiltration (CD4+, CD8+ T cells, macrophages)” value (4T1 breast carcinoma) was “most effective” and the “immune cell infiltration (CD4+, CD8+ T cells, CD11b macrophages)” value (RIP-Tag insulinoma [4]) was “significant increase in immune cell infiltration”. For the same substance, the “ECM content in normal pancreas” value (RIP-Tag insulinoma [5]) was “remained unaltered”, the “tumour ECM content (collagen-1, laminin, nidogen 1, excluding basement membrane)” value (RIP-Tag insulinoma [5]) was “significant reduction in ECM content” and the tumour stiffness [6] was “below 100 kPa”. The “tissue stiffness (stiffness >100 kPa) and stiffness variance” value ([6]; frequency distribution) was “significantly reduced”, the “vessel width vs control treated tumours” value [7] was “significantly wider” and the “CD31:lectin ratio” value ([7]; 10 min i.v. circulation of lectin) was about 1. For the same substance, the “tumour permeability to Evans blue dye vs control-treated tumours” value (4T1 tumour [8]) was “more permeable to Evans blue dye”, the “accumulation of FITC-labelled IO micelles in tumours (MRI T2* and T2 relaxation)” value (insulinoma) was “increased accumulation of FITC-labelled IO micelles” and the “loss of signal (T2 relaxation time)” value (insulinoma) was “significantly lower”. For the same substance, the “ratio of cytotoxic T cells to immune suppressor T cells” value (4T1 tumour [9]) was “significantly higher ratio of cytotoxic T cells to immune suppressor T cells”, the “tumour cell proliferation (Ki67+)” value (4T1 tumour [9]) was “significant reduction in tumour cell proliferation” and the “tumour size and weight” value (4T1 tumour [9]; vs control CSG peptide) was “significantly reduced”. The “hypoxia in primary tumours” value (4T1 breast tumours) was “significantly reduced hypoxia”, the “lung metastasis (cell density/tissue)” value (4T1 breast tumours) was “significantly reduced lung metastasis” and the “metastatic colony counts in liver and lymph nodes” value (4T1 breast tumours) was “lower”. The tumour centre (4T1 breast tumours) was “enlarged tumour centres that were cleared of tumour burden” and the “tumour clearance (hypoxia marker staining)” value (4T1 tumours) was “large areas at the centre of the tumour devoid of tumour cells”.
